Data published in patent US4539037A, “Urease inhibited urea based fertilizer compositions containing N-aryl-N-aliphatic phosphorotriamide compounds” (Allied Corporation, priority 1983, dated 1985).

Columns and labels:
soil urease [1] = assay: Urea hydrolyzed vs. time in soil at elevated temperature (35° C.); assay type: biochemical; conditions: soil at 35° C., 10 micrograms of urease inhibitor per gram of soil; for urease inhibiting effect at 35° C. (FIGURE, in words): sampled every two days, period of 12 days
Description: FIG. 1 is a graph of urea hydrolyzed vs. time at 35° C. using 10 micrograms of urease inhibitor per gram of soil.
Several representative N-alkyl-N-aryl phosphoric triamide compounds useful in the practice of this invention were tested to determine their relative effectiveness or urease inhibitors. The inhibition tests were run in a New York soil (Cazenovia sandy loam, pH 7.2). Evaluations (run in triplicate) consisted of applying 800 and 20 micrograms of test compound in 5 mL water and 42.8 mg urea in 1 mL water to 20 g air-dry soil in a glass bottle. The bottle was capped with perforated aluminum foil and incubated at 25° C. for 3 days prior to extraction with 100 mL 2M KCl containing 0.5 mg phenylmercuric acetate. The extracts were then analyzed for remaining urea using an auto analyzer. Percent inhibition was calculated as
Employing the procedure of EXAMPLES VII to IX a series of test were conducted to show improved efficiency of N-aliphatic-N-arylphosphoric triamides at elevated temperature as compared to the efficiency of phenylphosphorodiamidate, a prior art urease inhibitor. This test was conducted similarly to the test previously described, but soil samples were taken every two days and analyzed for urea content.

soil urease [2] = assay: Soil urease inhibition test (urea remaining after incubation in Cazenovia sandy loam, 25° C., 3 days); assay type: biochemical; conditions: for % Inhibition 20 μmg: 20 micrograms test compound per 20 g soil
Description: The inhibition tests were run in a New York soil (Cazenovia sandy loam, pH 7.2). […] The bottle was capped with perforated aluminum foil and incubated at 25° C. for 3 days prior to extraction with 100 mL 2M KCl containing 0.5 mg phenylmercuric acetate. The extracts were then analyzed for remaining urea using an auto analyzer. Percent inhibition was calculated as
% Inhibition=[-1(A-B/A-C)]×100
where A is urea recovered from unincubated sample (urea added to soil and immediately extracted); B is urea recovered from inhibited sample; and C is urea recovered from the control (uninhibited sample).

soil urease [3] = conditions: stated for a known compound; cited from earlier work
[4] = Table II, procedure of Examples VII to IX
[5] = Table II, procedure of Examples VII to IX, 800 micrograms test compound per 20 g soil

Compound | urease inhibiting effect at 35° C. (FIGURE, in words) (soil urease [1]) | % Inhibition 20 μmg (soil urease [2]; [4]) [%] | % Inhibition 800 μmg (soil urease [2]; [5]) [%] | other results
N-Methyl-N-(4-nitrophenyl) Phosphoric Triamide [IX] | excellent inhibitor | – | – | –
NP(N)(=O)Nc1ccccc1 [Comp II] | – | 19 | 74 | –
COc1ccc(N(C)P(N)(N)=O)cc1 [VIII] | – | – | – | % Inhibition 800 μmg (soil urease [2]; Table I, 800 micrograms test compound + 42.8 mg urea per 20 g air-dry soil (pH 7.2), triplicate): 47%
NP(N)(=O)Nc1ccc([N+](=O)[O-])cc1 [Comp I] | – | 30 | 81 | –
NP(N)(=O)Oc1ccccc1 [phenyl phosphorodiamidate] | much less effective | – | – | time to essentially complete urea hydrolysis (soil urease [1]): 6 days; urease inhibiting effect at 25° C. (in words) (soil urease [3]): excellent urease inhibiting effect
